Experimental data published in patent publication US6335330B1, “Crystalline pharmaceutical product” (SmithKline Beecham Corporation, priority 1996, dated 2002).
Where a name gives a salt, the structure may show the parent alone. Read-outs that look alike come from different tables or passages of the source.

Key:
Assay type in all cases: physicochemical
[1] = Thermal stability of solid samples (3 days at 100° C., hplc); conditions: for increase in organic impurities: hplc, by area
[2] = Hygroscopicity / water content (Karl Fischer analysis)
Excerpt: The present invention provides (S)-7-[(4,4′-bipiperidin- 1-yl)carbonyl]-2,3,4,5-tetrahydro-4-methyl-3-oxo-1H-1,4-benzodiazepine-2-acetic acid, hydrochloride, formula (I), as a novel material, and, in particular, as a pharmaceutically acceptable form. The material crystallizes preferably with one mole of HCl, and appears to exist in a generally anhydrous form. Although small amounts of water may be detected by Karl Fischer analysis, this is generally less than 1-2% w/w of the drug substance, and it appears to be consistent irrespective of the storage conditions. […] Accordingly, the hydrochloride salt form offers significant advantages for bulk material consistency, handling, and formulation.

[3] = Solubility in water
[4] = Thermal stability over an extended period (shelf life); conditions: impairs shelf life

## CN1Cc2cc(C(=O)N3CCC(C4CCNCC4)CC3)ccc2N[C@@H](CC(=O)O)C1=O [HCl Salt, (S)-7-[(4,4′-bipiperidin-1-yl)carbonyl]-2,3,4,5-tetrahydro-4-methyl-3-oxo-1H-1,4-benzodiazepine-2-acetic acid, hydrochloride]
[1]; hydrochloride
  increase in organic impurities: no increase
  Thermal Stability: Stable
[2]; consistent irrespective of the storage conditions
  water detected by Karl Fischer analysis: 1-2 % w/w
[2]; t = 0, hydrochloride
  Hygroscopicity (% w/w Karl Fischer analysis): 0.9 % w/w
[2]; t = 21 days, hydrochloride
  Hygroscopicity (% w/w Karl Fischer analysis): 0.8 % w/w
[3]
  dissolution and solubility in water (in words): enhanced dissolution and solubility in water
  solubility in water relative to the zwitterion: about ten

## CN1Cc2cc(C(=O)N3CCC(C4CCNCC4)CC3)ccc2N[C@@H](CC(=O)O)C1=O [Zwitterion, (S)-7-[(4,4′-bipiperidin-1-yl)carbonyl]-2,3,4,5-tetrahydro-4-methyl-3-oxo-1H-1,4-benzodiazepine-2-acetic acid]
[1]
  Thermal Stability: some degradation,
  increase in organic impurities: impurities by 1.3% (hplc,
[2]; equilibrating species
  water taken up on equilibration: about six
[2]; material prepared according to WO 95/18619
  hygroscopicity (in words): hygroscopic
[2]; t = 0
  Hygroscopicity (% w/w Karl Fischer analysis): 5.6 % w/w
[2]; t = 21 days
  Hygroscopicity (% w/w Karl Fischer analysis): 20.1 % w/w

## CN1Cc2cc(C(=O)N3CCC(C4CCNCC4)CC3)ccc2N[C@@H](CC(=O)O)C1=O [trifluoroacetate salt]
[4]
  thermal stability for an extended period: not thermally stable for an extended period
